Measured values: PubChem BioAssay AID234 (DTP/NCI, 2004)
Values joined by “and” are separate entries in the source; they are usually repeats but may differ in a detail not shown here. Identical values can stand only once. Records with an inconclusive call do not appear.

Test system: C3AKF1 mice, hamster liver cystadenocarcinoma s.c., tumor weight T/C
Test: NCI In Vivo Anticancer Drug Screen. Data for tumor model Cystadenocarcinoma, Liver (No. 1) (Hamster) (subcutaneous) in C3AKF1 (CHKRF1) mice
Conditions: endpoint: mean tumor weight, schedule: Q01DX010 (ip), higher = larger tumour
Experimental: The antitumor activity of compounds was measured in mice bearing transplantable tumors. Survival or tumor size were measured and the results are expressed as the measurement made in the treated group (T) divided by the measurement made in the vehicle treated control group (C). The tumor model used in this assay is Cystadenocarcinoma, Liver (No. 1) (Hamster) (subcutaneous) in C3AKF1 (CHKRF1) mice

[1] = dose: 25.0 mg/kg/injection, vehicle: carboxymethylcellulose (CMC)
[2] = dose: 50.0 mg/kg/injection, vehicle: carboxymethylcellulose (CMC)
[3] = dose: 100.0 mg/kg/injection, vehicle: carboxymethylcellulose (CMC)
[4] = dose: 6.0 mg/kg/injection, vehicle: carboxymethylcellulose (CMC)
[5] = dose: 3.0 mg/kg/injection, vehicle: carboxymethylcellulose (CMC)
[6] = dose: 15.0 mg/kg/injection, vehicle: carboxymethylcellulose (CMC)
[7] = dose: 1.0 mg/kg/injection, vehicle: carboxymethylcellulose (CMC)
[8] = dose: 2.0 mg/kg/injection, vehicle: carboxymethylcellulose (CMC)
[9] = dose: 4.0 mg/kg/injection, vehicle: carboxymethylcellulose (CMC)
[10] = dose: 250.0 mg/kg/injection, vehicle: carboxymethylcellulose (CMC)
[11] = dose: 30.0 mg/kg/injection, vehicle: carboxymethylcellulose (CMC)
[12] = dose: 60.0 mg/kg/injection, vehicle: carboxymethylcellulose (CMC)
[13] = dose: 12.0 mg/kg/injection, vehicle: carboxymethylcellulose (CMC)
[14] = dose: 125.0 mg/kg/injection, vehicle: carboxymethylcellulose (CMC)
[15] = dose: 200.0 mg/kg/injection, vehicle: carboxymethylcellulose (CMC)
[16] = dose: 40.0 mg/kg/injection, vehicle: carboxymethylcellulose (CMC)

Compound: CCOC(=O)NC
- T/C (dose: 75.0 mg/kg/injection, vehicle: saline): 64 % of control
- T/C (dose: 150.0 mg/kg/injection, vehicle: saline): 83 % of control
- T/C (dose: 300.0 mg/kg/injection, vehicle: saline): 93 % of control
- T/C (dose: 600.0 mg/kg/injection, vehicle: saline): 83 % of control

Compound: O=[n+]1c2c(n([O-])c3ccccc31)-c1cccc3cccc-2c13
- T/C [1]: 64 % of control
- T/C [2]: 74 % of control
- T/C [3]: 48 % of control

Compound: O=C1C=CC(=Nc2ccc(O)c3ncccc23)c2cccnc21
- T/C [4]: 95 % of control

Compound: CCC[CH2][Sn]([CH2]CCC)([CH2]CCC)[O]C(=O)CC[S][Sn]([CH2]CCC)([CH2]CCC)[CH2]CCC
- T/C (dose: 0.75 mg/kg/injection, vehicle: saline): 111 % of control
- T/C (dose: 1.5 mg/kg/injection, vehicle: saline): 77 % of control
- T/C (dose: 3.0 mg/kg/injection, vehicle: saline): 100 % of control
- T/C (dose: 6.0 mg/kg/injection, vehicle: saline): 83 % of control and 84 % of control
- T/C (dose: 12.0 mg/kg/injection, vehicle: saline): 92 % of control
- T/C (dose: 24.0 mg/kg/injection, vehicle: saline): 93 % of control

Compound: CCn1cnc2c(=S)nc(N)[nH]c21
- T/C [5]: 115 % of control
- T/C (dose: 7.0 mg/kg/injection, vehicle: carboxymethylcellulose (CMC)): 107 % of control
- T/C [6]: 59 % of control and 70 % of control

Compound: C=CCn1c(=O)n(CC=C)c(=O)n(CC=C)c1=O
- T/C (dose: 22.5 mg/kg/injection, vehicle: saline): 76 % of control
- T/C (dose: 45.0 mg/kg/injection, vehicle: saline): 63 % of control
- T/C (dose: 90.0 mg/kg/injection, vehicle: saline): 63 % of control

Compound: CNC=O
- T/C (dose: 50.0 mg/kg/injection, vehicle: saline): 39 % of control
- T/C (dose: 100.0 mg/kg/injection, vehicle: saline): 34 % of control
- T/C (dose: 200.0 mg/kg/injection, vehicle: saline): 20 % of control

Compound: O=C1NC2C(NC(=O)N2Cl)N1Cl (configuration not stated)
- T/C (dose: 20.0 mg/kg/injection, vehicle: saline): 101 % of control

Compound: NC(Cc1ccc(N(CCCl)CCCl)cc1)C(=O)O (configuration not stated)
- T/C [7]: 67 % of control
- T/C (dose: 1.25 mg/kg/injection, vehicle: carboxymethylcellulose (CMC)): 70 % of control
- T/C [8]: 86 % of control
- T/C (dose: 2.5 mg/kg/injection, vehicle: carboxymethylcellulose (CMC)): 65 % of control
- T/C [9]: 52 % of control
- T/C (dose: 5.0 mg/kg/injection, vehicle: carboxymethylcellulose (CMC)): 82 % of control

Compound: O=C(Nc1ccc(C2=NCCN2)cc1)c1ccc(C(=O)Nc2ccc(C3=NCCN3)cc2)c(NC(=O)c2ccc(C(=O)Nc3cc(C(=O)Nc4ccc(C5=NCCN5)cc4)ccc3C(=O)Nc3ccc(C4=NCCN4)cc3)cc2)c1
- T/C (dose: 62.0 mg/kg/injection, vehicle: carboxymethylcellulose (CMC)): 102 % of control
- T/C [10]: 205 % of control

Compound: O=P(N1CC1)(N1CC1)N1CC1
- T/C (dose: 0.5 mg/kg/injection, vehicle: carboxymethylcellulose (CMC)): 93 % of control
- T/C [7]: 65 % of control
- T/C [8]: 71 % of control
- T/C [9]: 48 % of control

Compound: Clc1ccc(N2CCN(CCCN3CCN(c4cccc(Cl)c4)CC3)CC2)cc1
- T/C (dose: 7.5 mg/kg/injection, vehicle: carboxymethylcellulose (CMC)): 71 % of control
- T/C [6]: 62 % of control
- T/C [11]: 52 % of control
- T/C [12]: 69 % of control

Compound: Nc1nc(SCc2ccccc2Cl)c2ncn(C3OC(CO)C(O)C3O)c2n1 (configuration not stated)
- T/C [4]: 104 % of control
- T/C [13]: 85 % of control
- T/C [1]: 112 % of control

Compound: CC1CN1C(=O)c1cc(C(=O)N2CC2C)cc(C(=O)N2CC2C)c1 (configuration not stated)
- T/C [6]: 83 % of control
- T/C [11]: 84 % of control
- T/C [12]: 118 % of control

Compound: c1ccc2c(c1)ccc1cc3c(ccc4ccccc43)cc12
- T/C (dose: 62.5 mg/kg/injection, vehicle: carboxymethylcellulose (CMC)): 64 % of control
- T/C [14]: 88 % of control
- T/C [10]: 86 % of control

Compound: CSc1ncnc2c1ncn2C1CCCO1 (configuration not stated)
- T/C [13]: 70 % of control
- T/C [1]: 69 % of control
- T/C [2]: 72 % of control and 79 % of control
- T/C [3]: 63 % of control and 76 % of control

Compound: O=C(O)CC(O)(CC(=O)O)C(=O)O.[Ga]
- T/C (dose: 12.5 mg/kg/injection, vehicle: carboxymethylcellulose (CMC)): 123 % of control
- T/C [1]: 96 % of control
- T/C [2]: 79 % of control

Compound: Nc1ncnc2c1ncn2C1CCCO1 (configuration not stated)
- T/C [1]: 107 % of control
- T/C [2]: 107 % of control
- T/C [15]: 69 % of control

Compound: CN(N=O)C(N)=O
- T/C (dose: 3.75 mg/kg/injection, vehicle: carboxymethylcellulose (CMC)): 95 % of control

Compound: O=[N+]([O-])c1ccccc1CSc1ncnc2nc[nH]c12
- T/C [6]: 101 % of control
- T/C (dose: 31.0 mg/kg/injection, vehicle: carboxymethylcellulose (CMC)): 99 % of control
- T/C [10]: 61 % of control

Compound: C=CC(=O)NCNC(=O)C=C
- T/C (dose: 15.0 mg/kg/injection, vehicle: saline): 66 % of control
- T/C (dose: 30.0 mg/kg/injection, vehicle: saline): 119 % of control
- T/C (dose: 60.0 mg/kg/injection, vehicle: saline): 62 % of control
- T/C (dose: 120.0 mg/kg/injection, vehicle: saline): 77 % of control

Compound: COc1cc(OC)c(OC)cc1/C=C\c1ccnc2ccccc12
- T/C (dose: 63.0 mg/kg/injection, vehicle: carboxymethylcellulose (CMC)): 104 % of control
- T/C [14]: 97 % of control
- T/C [10]: 95 % of control

Compound: Nc1nc(N)c(N=Nc2ccccc2)c(=O)[nH]1
- T/C [2]: 100 % of control
- T/C [3]: 110 % of control
- T/C [15]: 93 % of control
- T/C (dose: 400.0 mg/kg/injection, vehicle: carboxymethylcellulose (CMC)): 100 % of control

Compound: CSc1ncc(Br)c(Sc2nc(N)nc3nc[nH]c23)n1
- T/C (dose: 1.5 mg/kg/injection, vehicle: carboxymethylcellulose (CMC)): 106 % of control
- T/C [5]: 117 % of control
- T/C [4]: 92 % of control
- T/C [13]: 74 % of control and 85 % of control and 92 % of control
- T/C (dose: 18.0 mg/kg/injection, vehicle: carboxymethylcellulose (CMC)): 103 % of control
- T/C (dose: 27.0 mg/kg/injection, vehicle: carboxymethylcellulose (CMC)): 77 % of control and 81 % of control
- T/C [16]: 65 % of control

Compound: CCOC(=O)Sc1ncnc2nc[nH]c12
- T/C (dose: 14.0 mg/kg/injection, vehicle: carboxymethylcellulose (CMC)): 87 % of control
- T/C (dose: 28.0 mg/kg/injection, vehicle: carboxymethylcellulose (CMC)): 84 % of control
- T/C (dose: 56.0 mg/kg/injection, vehicle: carboxymethylcellulose (CMC)): 86 % of control

Compound: COc1ccc(-c2c(CC(=O)O)c3cc(OC)ccc3n2Cc2ccc(Cl)cc2)cc1
- T/C [14]: 90 % of control
- T/C [10]: 100 % of control
- T/C (dose: 500.0 mg/kg/injection, vehicle: carboxymethylcellulose (CMC)): 100 % of control

Compound: CN(C)Nc1ncnc2nc[nH]c12
- T/C (dose: 20.0 mg/kg/injection, vehicle: carboxymethylcellulose (CMC)): 107 % of control
- T/C [16]: 102 % of control

Compound: O=C(NO)c1ccncc1
- T/C (dose: 250.0 mg/kg/injection, vehicle: saline): 80 % of control
- T/C (dose: 500.0 mg/kg/injection, vehicle: saline): 78 % of control
- T/C (dose: 750.0 mg/kg/injection, vehicle: saline): 76 % of control
